{"source": "the supplement of paper PMC10307832", "experiment_in_all_cases": "relative viability (nuclei count vs DMSO), 5 days (fraction); higher = more cells survive", "key": {"CX-5461 + Palbociclib": {"compound": "Cc1cnc(CNC(=O)c2c(=O)c3ccc(N4CCCN(C)CC4)nc3n3c2sc2ccccc23)cn1 [CX-5461] + CC(=O)c1c(C)c2cnc(Nc3ccc(N4CCNCC4)cn3)nc2n(C2CCCC2)c1=O [Palbociclib] (partner 0.5 µM)", "how_it_was_run": "(§1)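 Dosing by pin tool came one day after lung cancer cell lines were seeded in 1536-well plates, using either one drug or a fixed anchor-drug dose plus five library-drug doses (not always all listed) in √10 steps. After 5 days, nuclei were counted on 4× images. Relative viability is treated-well nuclei count divided by vehicle-well nuclei count, and values are medians of duplicate plates.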"}, "CX-5461 + Linsitinib": {"compound": "Cc1cnc(CNC(=O)c2c(=O)c3ccc(N4CCCN(C)CC4)nc3n3c2sc2ccccc23)cn1 [CX-5461] + C[C@]1(O)C[C@@H](c2nc(-c3ccc4ccc(-c5ccccc5)nc4c3)c3c(N)nccn32)C1 [Linsitinib] (partner 1 µM)", "how_it_was_run": "as §1"}, "CX-5461 + Olaparib": {"compound": "Cc1cnc(CNC(=O)c2c(=O)c3ccc(N4CCCN(C)CC4)nc3n3c2sc2ccccc23)cn1 [CX-5461] + O=C(c1cc(Cc2n[nH]c(=O)c3ccccc23)ccc1F)N1CCN(C(=O)C2CC2)CC1 [Olaparib] (partner 8 µM)", "how_it_was_run": "as §1"}, "IMD-0354 + Crizotinib": {"compound": "O=C(Nc1cc(C(F)(F)F)cc(C(F)(F)F)c1)c1cc(Cl)ccc1O [IMD-0354] + C[C@@H](Oc1cc(-c2cnn(C3CCNCC3)c2)cnc1N)c1c(Cl)ccc(F)c1Cl [Crizotinib] (partner 1 µM)", "how_it_was_run": "as §1"}}, "data": [{"cell line": "UMC-11", "values": [{"measurement": "relative viability", "setting": "CX-5461 + Palbociclib; first compound 0.01 µM", "result": 0.36}, {"measurement": "relative viability", "setting": "CX-5461 + Palbociclib; first compound 0.03162 µM", "result": 0.319}, {"measurement": "relative viability", "setting": "CX-5461 + Palbociclib; first compound 0.1 µM", "result": 0.306}, {"measurement": "relative viability", "setting": "CX-5461 + Palbociclib; first compound 0.3162 µM", "result": 0.294}, {"measurement": "relative viability", "setting": "CX-5461 + Palbociclib; first compound 1 µM", "result": 0.241}, {"measurement": "relative viability", "setting": "CX-5461 + Linsitinib; first compound 0.01 µM", "result": 0.907}, {"measurement": "relative viability", "setting": "CX-5461 + Linsitinib; first compound 0.03162 µM", "result": 1.07}, {"measurement": "relative viability", "setting": "CX-5461 + Linsitinib; first compound 0.1 µM", "result": 1.02}, {"measurement": "relative viability", "setting": "CX-5461 + Linsitinib; first compound 0.3162 µM", "result": 0.92}, {"measurement": "relative viability", "setting": "CX-5461 + Linsitinib; first compound 1 µM", "result": 0.807}, {"measurement": "relative viability", "setting": "CX-5461 + Olaparib; first compound 0.01 µM", "result": 0.323}, {"measurement": "relative viability", "setting": "CX-5461 + Olaparib; first compound 0.03162 µM", "result": 0.369}, {"measurement": "relative viability", "setting": "CX-5461 + Olaparib; first compound 0.1 µM", "result": 0.321}, {"measurement": "relative viability", "setting": "CX-5461 + Olaparib; first compound 0.3162 µM", "result": 0.395}, {"measurement": "relative viability", "setting": "CX-5461 + Olaparib; first compound 1 µM", "result": 0.267}, {"measurement": "relative viability", "setting": "IMD-0354 + Crizotinib; first compound 0.04 µM", "result": 0.701}, {"measurement": "relative viability", "setting": "IMD-0354 + Crizotinib; first compound 0.1265 µM", "result": 0.578}, {"measurement": "relative viability", "setting": "IMD-0354 + Crizotinib; first compound 0.4 µM", "result": 0.432}, {"measurement": "relative viability", "setting": "IMD-0354 + Crizotinib; first compound 1.265 µM", "result": 0.263}, {"measurement": "relative viability", "setting": "IMD-0354 + Crizotinib; first compound 4 µM", "result": 0.267}]}]}
